From the NIST ThermoML archive (doi:10.1021/je9006579)

Tests used:
[1] = molar heat capacity at constant pressure; conditions: 101.33 kPa, Liquid, Cooling curve
[2] = molar heat capacity at constant pressure; xn = mol fraction of the nth substance listed; conditions: 101 kPa, Liquid

CCCCCCC [heptane]
[1]
Conditions | molar heat capacity at constant pressure [J/K/mol]
313.15 K | 230.37
333.15 K | 240.03

CC(=O)O [acetic acid] + CC(=O)OC(C)=O
[2], Cooling curve, x2 = 0
Conditions | molar heat capacity at constant pressure [J/K/mol]
308.15 K | 134.93
313.15 K | 135.5
318.15 K | 136
323.15 K | 136.35
328.15 K | 136.87
333.15 K | 137.21

CC(=O)O [acetic acid]
[1]
Conditions | molar heat capacity at constant pressure [J/K/mol]
313.15 K | 135.5
333.15 K | 137.21

CC(=O)OC(C)=O [ethanoic anhydride]
[1]
Conditions | molar heat capacity at constant pressure [J/K/mol]
313.15 K | 200.73
333.15 K | 204.34

C1N2CN3CN1CN(C2)C3 [1,3,5,7-tetraazaadamantane] + CC(=O)O
molar heat capacity at constant pressure [J/K/mol], [2], Vacuum adiabatic calorimetry
Conditions | x1 = 0.022 | x1 = 0.0454 | x1 = 0.0703 | x1 = 0.0967 | x1 = 0.1249 | x1 = 0.1551 | x1 = 0.1873 | x1 = 0.2221
308.15 K | 137.35 | 144.8 | 151.94 | 159.76 | 170.64 | 180.97 | 191.09 | 203.69
313.15 K | 142.53 | 150.32 | 157.16 | 165.58 | 176.29 | 187.61 | 198.06 | 210.89
318.15 K | 147.51 | 155.25 | 162.14 | 170.38 | 181.92 | 193.63 | 203.66 | 216.63
323.15 K | 152.45 | 160.18 | 166.78 | 175.7 | 186.63 | 198.28 | 209.59 | 222.76
328.15 K | 157.24 | 165.08 | 172 | 180.88 | 191.96 | 204.18 | 214.96 | –
333.15 K | 161.64 | 169.05 | 176.96 | 185.28 | 197.37 | 209.36 | 220.93 | 235.17

CC(=O)OC(C)=O [ethanoic anhydride] + CC(=O)O
molar heat capacity at constant pressure [J/K/mol], [2], Cooling curve
Conditions | x1 = 0.0613 | x1 = 0.1282 | x1 = 0.2013 | x1 = 0.2817 | x1 = 0.3704 | x1 = 0.4687 | x1 = 0.5785 | x1 = 0.7017 | x1 = 0.8411 | x1 = 1
308.15 K | 139.18 | 144.25 | 149.4 | 154.9 | 160.85 | 167.3 | 174.47 | 182.33 | 190.56 | 199.93
313.15 K | 139.82 | 144.91 | 150.09 | 155.59 | 161.58 | 168.08 | 175.28 | 183.12 | 191.49 | 200.73
318.15 K | 140.51 | 145.46 | 150.76 | 156.27 | 162.26 | 168.76 | 176.03 | 183.96 | 192.33 | 201.58
323.15 K | 141.12 | 145.9 | 151.31 | 156.85 | 162.89 | 169.45 | 176.76 | 184.78 | 193.23 | 202.53
328.15 K | 141.75 | 146.52 | 152.03 | 157.59 | 163.68 | 170.33 | 177.68 | 185.79 | 194.35 | 203.67
333.15 K | 142.23 | 147.13 | 152.51 | 158.1 | 164.24 | 170.89 | 178.31 | 186.44 | 195 | 204.34
